Here are results for 99 compounds from ChEMBL document CHEMBL3507680, “University of Dundee, Gates Library screen for HepG2 cell viability”.

The data set in a line: Human HepG2 cell viability assay in 384 well format. Type of data set: toxicity, cell-based. Further details: dose 125 nL, time 70.5 hour; concentration not given beside the values. Conditions: HepG2 cells, read-out: Inhibition.
Consider `O=C(NCCSc1cnn[nH]1)c1c[nH]nc1C1CCCCC1`, for which the cytotoxicity at 70.5 h came to 1.5%.

Regarding `Cc1cc(N2CCC3(CCCN(CCO)C3=O)C2)nc2ccccc12` (centres undefined), the cytotoxicity at 70.5 h is -26.3%.

With `COCC(NC(=O)c1cc[nH]n1)c1cccc(C(F)(F)F)c1` (centres undefined), the cytotoxicity at 70.5 h was -0.606%. The value for `CS(=O)(=O)NC1CCN(C(=O)c2ccc(F)cc2)CC1` was -3.98%. With `Cc1ccc(OCC2CCCN(CC3CCOCC3)C2)cc1` (centres undefined), the cytotoxicity at 70.5 h stood at 2.28%.

`Cc1ccc2nc(C3CCCN3Cc3nnc(C)s3)[nH]c2c1` (centres undefined): the cytotoxicity at 70.5 h turned out to be 26.6%. Next, `CC(=O)Nc1nc(C(=O)N2CCCC2c2ccccc2C)cs1` (centres undefined): -19.1%; `CN(C)C[C@@H]1[C@H]2CN(C(=O)c3cc(=O)[nH]c4ccc(F)cc34)C[C@@H]12`: 22.8%; `CCCN1CCC(CC(=O)N2CC(C)(C)[C@@](C)(O)C2)CC1`: -2.11%. Next, `CS(=O)(=O)NC(c1ccccc1)c1ccc2c(c1)CCCO2` (centres undefined): -6.34%. Regarding `OCCOc1cc(F)ccc1NCc1nc(-c2cccs2)no1`, the cytotoxicity at 70.5 h was -10.9%. The value for `O=C(c1ccco1)N1CCC2(CCC(=O)N2Cc2cccc(F)c2)CC1` was -15.7%; that for `O=C(O)c1ccn(-c2cccc(NC(=O)c3ccccc3Cl)c2)n1` was -6.97%; that for `CCN1CCN(CCCNC(=O)NC(C)c2nncn2C)CC1` (centres undefined) was 2.39%. The value for `CS(=O)(=O)NCCN(CCCO)C1CCc2ccccc21` (centres undefined) was -97.1%; that for `CSc1nnc(CNC(=O)Nc2ccccc2F)n1C` was -7.23%. Turning to `CCN1CCC2(CCC1=O)CN(c1ccnc(SC)n1)CCN2C` (centres undefined), the cytotoxicity at 70.5 h is 3.52%. The value for `O=C(c1cccnc1)N1CCN(c2ccc(-n3cccc3)nn2)CC1` was 0.575%; that for `CCCc1cc(N2CCC(NC3CCS(=O)(=O)C3)CC2)nc(C)n1` (centres undefined) was -4.65%.

Consider `CC1CN(CC(=O)NCCc2ccncc2)Cc2ccccc2O1` (centres undefined), for which the cytotoxicity at 70.5 h was -7.7%. Next, `CC(C)(CN1CCC(Cc2ccc(C(=O)O)cc2)C1)N1CCOCC1` (centres undefined): -12.2%.

With `CC(C)c1nc(C2CCCN(c3cnc4ccccc4n3)C2)no1` (centres undefined), the cytotoxicity at 70.5 h was -5.55%. The value for `Cc1nnc2n1CCN(CC(=O)NC(C)c1cccc3ccccc13)C2` (centres undefined) was 2.87%; that for `Cc1cccc(N2CCN(C(=O)CC3(O)CCCC3)C(C)C2)n1` (centres undefined) was 0.326%; that for `CN(C)[C@@H]1CCN(c2ncccn2)[C@H]1Cc1cccnc1` was -3.76%. Next, `CCN(Cc1cccc2c1OCO2)C(=O)Nc1ccccn1`: -9.07%; `Cc1ccc(C(=O)N2CC(Oc3ccccc3C)C2)s1`: -12.1%; `CCC(=O)N1CCCN(C(=O)C2SCCc3sccc32)CC1` (centres undefined): 3.13%.

Take `COc1nc2c(cc1C(=O)N1CCCCC1c1ccccn1)CCC2` (centres undefined): the cytotoxicity at 70.5 h was -6.36%. The value for `Cc1cccc(-c2nc(N)nc3c2CN(C(=O)C2CCCC2)C3C)c1` (centres undefined) was -18.6%. Next, `C=C(C)CN(CC)Cc1nc(C2CC2)no1`: -5.54%.

As to `Cc1cc(=O)n2nc(CNc3cc(Cl)ccc3C)nc2[nH]1`, the cytotoxicity at 70.5 h was -9.92%.

With `Cc1cccc(OCCNC(=O)CN2CCCC2c2noc(C)n2)c1` (centres undefined), the cytotoxicity at 70.5 h was -4.91%.

Consider `Cn1nc(C2CCN(C(=O)c3cnccn3)C2)cc1CCO` (centres undefined), for which the cytotoxicity at 70.5 h was -2.35%. As for `CCOC1CCN(C(=O)c2ccc(-c3cccc(C)c3)[nH]c2=O)CC1`, the cytotoxicity at 70.5 h was -8.75%.

`COC(=O)CN(C)Cc1cc(Br)cs1`: the cytotoxicity at 70.5 h is 38.2%.

Consider `Cc1cnc(CNC(=O)N(CCCO)C2CCc3ccccc32)s1` (centres undefined), for which the cytotoxicity at 70.5 h was determined as 0.605%. Regarding `CCCC(C)C(=O)N1CCC(c2cc(N3CCOCC3)nc(C)n2)CC1` (centres undefined), the cytotoxicity at 70.5 h was -1.55%. The value for `O=C(NCC1CC1)C1CN(C(=O)c2cccnc2)CC12CCOCC2` (centres undefined) was -7.11%; that for `CCOc1ccc(NC(=O)NCCS(=O)(=O)CC)cc1C` was -8.96%; that for `Cc1cc(OCC(=O)N2CCCC2c2noc(C)n2)no1` (centres undefined) was -13.8%. For `c1ccc(CN2Cc3nccn3CC(Cn3cccn3)C2)nc1` (centres undefined), the cytotoxicity at 70.5 h is -3.5%. The value for `CCN(CC)C(=O)c1cc(C2CCCN2C)ccn1` (centres undefined) was 4.19%. Take `CCC(CC)CS(=O)(=O)NC(=O)C1CCCC1`: the cytotoxicity at 70.5 h came out at 26.6%. Next, `COc1ccc(OCc2cc(C(=O)N3C[C@@H](C)O[C@@H](C)C3)n[nH]2)c(Cl)c1`: -8.42%; `CO[C@@H]1CCN(Cc2ccc(C)o2)[C@H]1Cc1ccccc1`: -1.2%. The value for `CC(=O)N1CCC2(CC1)C(=O)N(C)c1c(F)cccc12` was 3.91%; that for `CC1=CC(C)(C)N(CN2C(=O)c3ccccc3C2=O)c2ccccc21` was 0.789%; that for `Cc1ncc2c(n1)CN(Cc1nc(Cc3ccccc3)no1)CC2` was -8.87%.

In the case of `Cc1ccccc1C(=O)N1CCOC2(CNCCOC2)C1` (centres undefined), the cytotoxicity at 70.5 h was -4.46%. In the case of `CC(C)C(C)NC(=O)c1ncn2c1CN(C)S(=O)(=O)c1ccccc1-2` (centres undefined), the cytotoxicity at 70.5 h is -2.58%.

Regarding `CCOCC(=O)Nc1ccc(N2CCSCC2)cc1C`, the cytotoxicity at 70.5 h is -7.62%. The value for `CN1CCN(C(=O)c2cccc(CN3CCOCC3)c2)CC1` was -2.6%. Next, `CNC(=O)c1sccc1S(=O)(=O)NC`: -6.63%; `O=C(NCc1ccc(Cl)cc1)C1CCCN(c2ccc3nncn3n2)C1` (centres undefined): -9.54%; `COC1CCN(C(=O)CCn2ccc(=O)[nH]c2=O)CC1`: 8.52%.

Consider `CCCc1nc(C)cc(N2CCC3(CCC(=O)N(CC(N)=O)C3)CC2)n1`, for which the cytotoxicity at 70.5 h was -8.54%. Next, `Cn1nccc1CN1CCOC(c2cccc(-c3cncnc3)n2)C1` (centres undefined): 14.3%. Next, `Cc1nc(C)n(CCCn2ccnc2-c2cc3n(n2)CCCNC3)n1`: -11%; `COCC(=O)Nc1ccccc1Sc1c(C)n[nH]c1C`: 25.1%; `Cc1nc(CC(=O)N2CCCN(c3ccc(C#N)cc3)CC2)cs1`: -8.68%. Next, `Cc1ccc(C(=O)NS(=O)(=O)c2cc(Br)ccc2C)c(=O)[nH]1`: -7.4%.

Regarding `CC(C)(O)CSCCNC(=O)c1ccc(F)cc1Cl`, the cytotoxicity at 70.5 h is -2.51%. Take `CN(C)C(=O)COCC1CN(CC2CCOCC2)Cc2ncn(C)c21` (centres undefined): the cytotoxicity at 70.5 h is -1.41%. Next, `O=C(c1nc2c(s1)CCCN2C(=O)C1CC1)N1CCCC1`: -3.91%. Turning to `CCCN1CCN(C(=O)c2ccc(Cl)cn2)[C@H]2CS(=O)(=O)C[C@H]21`, the cytotoxicity at 70.5 h is -10.4%. Next, `O=C(O)c1ccnc(-c2ccnc(NCCc3cscn3)n2)c1`: -2.9%.

On to `COc1ccc2c(C)c(C(=O)NC3CCN(S(C)(=O)=O)CC3)oc2c1`, for which the cytotoxicity at 70.5 h is -2.46%. With `CC(=O)Nc1ccc(SCCCC(=O)NCC2CCCO2)nn1` (centres undefined), the cytotoxicity at 70.5 h is -11.3%.

With `CC(C)NC(=O)C[C@@H]1CCNC[C@@H]1Cc1cc(-c2ccccn2)on1`, the cytotoxicity at 70.5 h was -16.5%. The value for `COCCc1noc(CN2CCCC2c2noc(C3CC3)n2)n1` (centres undefined) was -1.05%; that for `CCC(=O)Nc1cc(Br)cn(C)c1=O` was 23.5%.

Regarding `O=C([C@@H]1COC[C@H]2CN(CC3CCCC3)C[C@H]21)N1CCOCC1`, the cytotoxicity at 70.5 h was -7.37%. In the case of `O=C(NCc1nnc2n1CCC2)N(Cc1ccc(F)cc1)C1CC1`, the cytotoxicity at 70.5 h was -8.55%. With `CC(C)(C)C(=O)N1CCC(c2noc(C3CCC(=O)N3)n2)CC1` (centres undefined), the cytotoxicity at 70.5 h was -6.7%. The value for `O=C(c1nc2c(o1)CN(CC1CCC1)C2)N1CCCC1` was 10.5%; that for `Cc1ccccc1[C@@H]1CN(CCCS(=O)(=O)N(C)C)C[C@H]1C(=O)O` was 7.05%; that for `CN(C(=O)c1cccc2[nH]ncc12)C1CCN(c2ccccn2)CC1` was 31.6%. Next, `CCN1CC[C@@]2(C(=O)N3CCOCC3)CCN(C(=O)C(C)C)CC[C@@H]12`: 18.4%; `Cc1ccc(-c2nc(CN3CCc4c(ncn4C)C3)cs2)o1`: 36.9%; `CNC(=O)c1cc2c(nc1NCC1CC1)CCN(c1ccncn1)CC2`: -24.6%. Next, `Cc1nnc(NCCC(=O)NCc2ccccc2)c(C#N)c1C`: -9.42%; `O=C(O)[C@@H]1CN(Cc2nc3ncccn3n2)C[C@H]1c1cccc(F)c1`: 26.1%.

Regarding `CCn1cnnc1CNC(=O)N1CCN(c2cccc(C)c2)CC1`, the cytotoxicity at 70.5 h is -7.02%.

For the compound `Cc1cc(C)n(CC2CCCN2C(=O)c2ccc3nnc(C)n3c2)n1` (centres undefined), the cytotoxicity at 70.5 h was -0.407%. Take `CN(C)C(=O)C(C)(C)c1ccc2c(c1)OCCO2`: the cytotoxicity at 70.5 h was -5.25%. The value for `Cc1nc(C2(NCC(=O)NCCc3cccs3)CCCC2)no1` was -9.55%; that for `COc1cc(OC)cc(C2(O)CCN(Cc3ncc(C)o3)CC2)c1` was 18.5%. Next, `CNC(=O)c1cccc(NC(=O)CN2CCN(S(C)(=O)=O)CC2)c1`: -11.3%; `O=C(Cc1ccccn1)N1CCN(C(=O)CC2CCCCC2)CC1`: -2.98%; `COc1cccc(OC)c1OCCn1c(C)c(C)oc1=O`: 0.271%.

With `COc1ccc(-n2cccn2)c(CN2CCC3(CCCNC3)C2)c1` (centres undefined), the cytotoxicity at 70.5 h was -7.03%. `Cc1ccsc1CN(CCCO)Cc1nc2ccccc2[nH]1`: the cytotoxicity at 70.5 h was -1.23%. The value for `CCOc1ccc(OCC(O)CN2CCN(S(C)(=O)=O)CC2)cc1` (centres undefined) was 0.695%; that for `Cc1cnn(CC2CCCN2Cc2nccn2CC(F)(F)F)c1` (centres undefined) was 0.0433%; that for `CN(Cc1cccc(OC(F)(F)F)c1)C(=O)c1ccncc1F` was -4.4%. As to `O=C(NCCc1ccc(I)s1)N1CCC1`, the cytotoxicity at 70.5 h was -2.1%. The value for `O=C(CCn1ccnc1)N1CCC(c2nnc(-c3ccccn3)o2)CC1` was -3.21%.

For `CC(C)N(C)CC(=O)NCC(Cc1ccc(F)cc1)C(N)=O` (centres undefined), the cytotoxicity at 70.5 h came to 1.22%.
